“Also recorded” adds a separate entry of the source.
How the values were obtained:
[1] = Metabolic stability: in vitro incubation with human liver microsomes and NADPH, LC-MS quantification; conditions: pooled human liver microsomes, pH 7.4
Procedure: (§1) The studied compounds were dissolved in acetonitrile (compounds 1, 3, 4, 10, 18, 19, 21, 22, 23, 24, 25, 26, 27, 28, 29), water (compounds 2, 7, 9, 11, 12, 13, 14, 15, 16, 17, 20, 30) or dimethyl sulfoxide (compounds 5 and 6), and diluted in phosphate buffer (pH = 7.4) to obtain 100 μM solutions. A 10 mM NADPH solution in phosphate buffer was prepared before incubations. Final concentrations in the incubation mixes were 5 μM of studied compound, 500 μM of NADPH and 1 mg/ml of human liver microsomes.
(§2) Using a MyBlock mini dry-bath (Benchmark Scientific, NJ, USA), mixtures without the compounds were subjected to a 5 min pre-incubation at 37°C before each experiment. Incubations were initiated with the addition of 15 μL of the compound solution to the mixture. The experiment lasted for 30 min. Immediately after addition of the compound, 50 μL of incubation mixture was collected and mixed with 50 μL of the stopping reagent, which was ice-cold acetonitrile containing 5 μM buspirone as internal standard. The next sample collection points were after 5, 10, 15 and 30 minutes of incubation time. After stopping the reaction, suspensions were centrifuged for 10 minutes at 7378 g using a Microfuge 16 (Beckman Instruments, Fullerton, CA, USA). Subsequently, 70 μL of supernatant thus obtained was directly analyzed using LC-MS (Agilent Technologies, Santa Clara, CA, USA).
(§3) The incubation and LC-MS analysis were repeated twice for each compound. To ensure that the biological conditions were valid, and no compound degradation occurs related to the addition of the enzyme solution, a negative control for each derivative was also performed.
(§4) The LC analysis was carried out using an Agilent 1260 Infinity system (Agilent Technologies) consisting of a binary pump, autosampler, temperature-controlled column compartment and UV variable wavelength detector, coupled with an Agilent 6120 Single Quad mass detector. Incubation samples were separated at 40°C on a Poroshell 120 EC-C-18 column (3 mm x 100 mm, 2.7 μm), provided by Agilent Technologies. The data were collected and processed in ChemStation software (v. B. 04.03, Agilent Technologies, Santa Clara, CA, USA). The injection volume was 10 μL. Mobile phases consisted of deionized water (phase A) and acetonitrile (phase B), both with 10 mM ammonium formate buffer (pH = 3) added. Gradient elution program was as follows: 0–15 min—5%-100% B, 15–16 min—100% B, 16–16.10 min—100%-5% B, 16.10–21 min 5% B. The flow rate was 0.5 ml/min. The total time for a single analysis was 21 minutes. MS detection was performed using an Agilent 6120 Single Quad mass spectrometer (Agilent Technologies) equipped with an electrospray (ESI) ion source. A nebulizer (pressure set to 40 psig) allowed for the gas phase ionization of studied compounds. Nitrogen (NM32LA Nitrogen Generator, Peak Scientific Instruments, Billerica, MA, USA) was used as the drying gas, with a flow rate of 10 L/min and a drying temperature of 300°C. Capillary voltage was set to 3000 V. Fragmentor voltage was set to 150 V. Chromatograms were collected with the use of single ion monitoring (SIM) in positive ion mode.
(§5) Half-life evaluation requires a compound depletion plot, which is obtained by plotting the time of incubation against the logarithmic peak area ratio (the ratio of the compound peak area to the internal standard peak area). […] After the elimination rate constant was designated, half-lives were calculated (Equation 1).

[2] = LC-Q-TOF-MS/MS metabolite structure elucidation after microsomal incubation; conditions: HLM + NADPH incubation
Procedure: as §1, §2
Tandem mass spectra of the metabolites were obtained with the use of an Agilent 1290 LC system connected to a hybrid Q-TOF tandem mass spectrometer (Agilent 6540 Series Accurate Mass Q-TOF-MS/MS). […] The Dual ESI source was operated in positive ion mode with the following conditions: the fragmentor voltage was set at 150V, nebulizer gas was set at 40 psig, capillary voltage was set at 3000 V, drying gas flow rate and temperature were set at 10 L/min and 300°C, respectively. The MS was operated in targeted MS/MS acquisition mode with a fixed collision energy of 35 V and a mass range of 30–1700 m/z. […] The instrument was operated in High Resolution mode (4 GHz). The Q-TOF was calibrated using reference masses 121.050873, 149.02332 and 922.009798 during the analysis run to ensure constant mass correction.
Several derivatives that varied in their degrees of non-pharmacophore ring saturation, R, R’ substituents and pharmacophore parts (2-pyridyl, 2-pyrimidynyl, phenyl-CF3), were chosen to collect fragmentation spectra using a Q-TOF tandem mass spectrometer and LC conditions as described earlier. […] The compounds’ structures and chromatographs were submitted to MassHunter Workstation Software MetaboliteID ver. B.02.00 build 2.0.121 to detect possible biotransformation products.

[3] = in vitro; conditions: human, microsomes, pH 7.4
Procedure: as §1, §2, §3, §4, §5

Compound | half-life at 5 μM [1] [min] | Type of biotransformation, metabolite M1 [2] | Type of biotransformation, metabolite M2 [2] | Type of biotransformation, metabolite M3 [2] | half-life at 5 μM [3] [min]
O=C1CC2(CCCC2)CC(=O)N1CCCCN1CCN(c2ncccn2)CC1 [Buspirone, buspirone, reference compound] | 6.59 |  |  |  | 
O=c1c(-c2ccccc2)c2ccccn2c(=O)n1CCCCN1CCN(c2ncccn2)CC1 [Compound 6] | 5.29 | hydroxylation | double hydroxylation in pharmacophore part |  | 
COc1ccccc1-c1c(=O)n(CCCCN2CCN(c3ncccn3)CC2)c(=O)n2ccccc12 [Compound 11] | 4 | Hydroxylation in the pharmacophore part | hydroxylation | O-demethylation reaction along with hydroxylation in the pharmacophore part; also recorded: O-demethylation and hydroxylation | 
O=C1C(c2ccccc2)C2CCCCN2C(=O)N1CCCCN1CCN(c2ccccc2F)CC1 (stereo not shown) [Compound 25] |  |  |  |  | 5.77
O=c1c(-c2ccccc2)c2n(c(=O)n1CCCCN1CCN(c3ncccn3)CC1)CCCC2 [Compound 30] | 9.32 | hydroxylation of the non-pharmacophore part of the molecules; also recorded: hydroxylation in both pharmacophore and non-pharmacophore site | hydroxylation of the non-pharmacophore part of the molecules; also recorded: Hydroxylation in the non-pharmacophore part of the molecule; also recorded: hydroxylation | hydroxylation | 

From paper PMC4380424, “Prediction of Overall In Vitro Microsomal Stability of Drug Candidates Based on Molecular Modeling and Support Vector Machines. Case Study of Novel Arylpiperazines Derivatives” (PLoS ONE, 2015)
